Experimental data: ChEMBL document CHEMBL5506022, “Discovery of Novel Dual Inhibitors Targeting Mutant IDH1 and NAMPT for the Treatment of Glioma with IDH1Mutation” (J Med Chem, 2024)
The source made the active and inactive calls. The rule behind the calls is not given here.

Key:
[1] = test system: U-87 MG; type: functional, Homo sapiens, U-87MG ATCC; settings: dose 0.5 µM; time 48 hrs
[2] = Half-life in Sprague-Dawley rat at 10 mg/kg, po measured after 24 hrs by LC-MS/MS analysis; type: ADME, organism-based; settings: in vivo
[3] = AUC (0 to t) in Sprague-Dawley rat at 1 mg/kg, iv measured after 24 hrs by LC-MS/MS analysis; type: ADME, organism-based; settings: in vivo
[4] = test system: U-87 MG; experiment: Antiproliferative activity against human U-87 MG cells harboring wildtype IDH1 assessed as inhibition of cell growth incubated for 24 hrs by CCK8 assay; type: functional, cell-based, U-87MG ATCC
[5] = Half-life in Sprague-Dawley rat at 1 mg/kg, iv measured after 24 hrs by LC-MS/MS analysis; type: ADME, organism-based; settings: in vivo
[6] = test system: U-87MG ATCC; experiment: Effect on intracellular NADP+ level in human U-87 MG cells harboring wildtype IDH1; type: functional, cell-based
[7] = Cmax in Sprague-Dawley rat at 10 mg/kg, po measured after 24 hrs by LC-MS/MS analysis; type: ADME, organism-based; settings: in vivo
[8] = Permeability of compound by PAMPA-BBB assay; type: ADME; settings: read-out: permeability
[9] = test system: U-87 MG; type: functional, organism-based; settings: Homo sapiens; U-87MG ATCC; dose 10-40 mg/kg, route iv, time 35.0 day
[10] = test system: U-87 MG; experiment: cells; settings: Homo sapiens, 48 h, read-out: Activity
[11] = test system: U-87MG ATCC; type: functional, cell-based; settings: Homo sapiens, dose 0.5-2 µM, time 24.0 hrs
[12] = Tmax in Sprague-Dawley rat at 1 mg/kg, iv measured after 24 hrs by LC-MS/MS analysis; type: ADME, organism-based; settings: in vivo
[13] = test system: U-87 MG; type: functional, Homo sapiens, U-87MG ATCC; settings: dose 40 mg/kg; route iv; time 35 day
[14] = test system: U-87 MG; type: functional, Homo sapiens, U-87MG ATCC; settings: dose 20 mg/kg; route iv; time 35 day
[15] = AUC (0 to infinity) in Sprague-Dawley rat at 1 mg/kg, iv measured after 24 hrs by LC-MS/MS analysis; type: ADME, organism-based; settings: in vivo
[16] = Acute toxicity in ICR mouse at 400 mg/kg, po measured for 7 days; type: organism-based; settings: in vivo, 168 h, time 7 day
[17] = test system: U-87 MG; type: functional, cell-based, U-87MG ATCC; settings: Homo sapiens, 48 h
[18] = test system: U-87 MG; type: functional, Homo sapiens, U-87MG ATCC; settings: dose 2 µM; time 48 hrs
[19] = test system: U-87 MG; type: functional, cell-based, U-87MG ATCC; settings: Homo sapiens, 72 h
[20] = Cmax in Sprague-Dawley rat at 1 mg/kg, iv measured after 24 hrs by LC-MS/MS analysis; type: ADME, organism-based; settings: in vivo
[21] = target: Isocitrate dehydrogenase [NADP] cytoplasmic (Homo sapiens, UniProt O75874, R132C); experiment: Inhibition of recombinant IDH1 R132C mutant (unknown origin) using alpha-ketoglutarate as substrate incubated for 60 mins in presence of NADPH by fluorescence microplate reader
Isocitrate dehydrogenase [NADP] cytoplasmic (Homo sapiens, UniProt O75874, R132C), sequence (O75874 2-414 R132C limits assumed): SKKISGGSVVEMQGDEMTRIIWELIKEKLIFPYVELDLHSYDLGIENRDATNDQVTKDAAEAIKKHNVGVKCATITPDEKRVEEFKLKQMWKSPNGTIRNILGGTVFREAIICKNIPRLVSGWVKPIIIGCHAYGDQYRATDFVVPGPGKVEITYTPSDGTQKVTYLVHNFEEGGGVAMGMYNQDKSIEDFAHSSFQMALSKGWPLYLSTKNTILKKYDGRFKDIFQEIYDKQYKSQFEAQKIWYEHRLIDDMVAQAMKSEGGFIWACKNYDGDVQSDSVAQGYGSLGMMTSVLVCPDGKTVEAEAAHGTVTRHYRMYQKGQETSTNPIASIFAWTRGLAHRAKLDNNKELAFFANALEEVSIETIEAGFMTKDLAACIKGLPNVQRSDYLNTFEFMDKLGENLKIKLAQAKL

[22] = test system: U-87MG ATCC; type: functional, cell-based; settings: Homo sapiens, dose 0.5-2 µM, time 48.0 hrs
[23] = test system: U-87 MG; type: functional, cell-based, U-87MG ATCC; settings: Homo sapiens, 24 h
[24] = test system: U-87MG ATCC; type: functional, cell-based; settings: Homo sapiens, dose 0.5-2 µM, time 24.0 hrs; remark: listed apart in the source
[25] = target: Isocitrate dehydrogenase [NADP], mitochondrial (Homo sapiens, UniProt P48735, R172K); experiment: Inhibition of IDH2 R172K mutant (unknown origin) using alpha-ketoglutarate as substrate incubated in presence of NADPH by Envision multimode plate reader analysis
Isocitrate dehydrogenase [NADP], mitochondrial (Homo sapiens, UniProt P48735, R172K), sequence (P48735 40-452 R172K limits assumed): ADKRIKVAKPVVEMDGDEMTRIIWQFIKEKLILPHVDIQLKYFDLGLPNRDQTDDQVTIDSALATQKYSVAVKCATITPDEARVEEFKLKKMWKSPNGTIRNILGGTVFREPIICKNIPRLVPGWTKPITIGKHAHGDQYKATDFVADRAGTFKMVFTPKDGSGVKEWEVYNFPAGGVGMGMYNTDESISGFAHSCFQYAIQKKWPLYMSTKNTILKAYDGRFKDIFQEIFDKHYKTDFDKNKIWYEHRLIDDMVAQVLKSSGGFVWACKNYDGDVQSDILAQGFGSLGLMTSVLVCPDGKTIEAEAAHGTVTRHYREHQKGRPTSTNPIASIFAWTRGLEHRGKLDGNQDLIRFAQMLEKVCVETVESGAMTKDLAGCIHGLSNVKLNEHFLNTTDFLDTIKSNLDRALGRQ

[26] = AUC in ICR mouse plasma at 5 mg/kg, iv measured after 24 hrs by LC-MS/MS analysis; type: ADME, organism-based
[27] = Clearance in Sprague-Dawley rat at 1 mg/kg, iv measured after 24 hrs by LC-MS/MS analysis; type: ADME, organism-based; settings: in vivo
[28] = target: T1, Isocitrate dehydrogenase [NADP], mitochondrial (Homo sapiens, UniProt P48735); experiment: Inhibition of wildtype IDH2 (unknown origin) […] by Envision multimode plate reader analysis
T1 sequence (P48735 whole entry): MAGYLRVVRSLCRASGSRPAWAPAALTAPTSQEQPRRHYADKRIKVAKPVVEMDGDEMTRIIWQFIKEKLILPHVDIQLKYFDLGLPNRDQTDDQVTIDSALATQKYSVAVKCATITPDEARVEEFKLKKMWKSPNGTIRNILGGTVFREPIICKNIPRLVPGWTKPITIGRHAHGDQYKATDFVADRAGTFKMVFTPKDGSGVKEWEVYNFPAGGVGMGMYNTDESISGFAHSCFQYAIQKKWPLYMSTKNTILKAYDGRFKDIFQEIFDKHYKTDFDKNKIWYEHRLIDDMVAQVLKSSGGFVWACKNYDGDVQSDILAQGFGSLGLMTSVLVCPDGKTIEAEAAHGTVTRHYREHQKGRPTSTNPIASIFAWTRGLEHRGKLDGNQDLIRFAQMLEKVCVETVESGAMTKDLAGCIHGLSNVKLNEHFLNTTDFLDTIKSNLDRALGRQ

[29] = test system: U-87 MG; type: functional, Homo sapiens, U-87MG ATCC; settings: dose 0.5 µM; time 48 hrs; remark: listed apart in the source
[30] = test system: U-87MG ATCC; type: functional, cell-based; settings: Homo sapiens, dose 0.5-2 µM, time 24.0 hrs; remark: listed apart in the source
[31] = test system: U-87MG ATCC; type: functional, cell-based; settings: Homo sapiens, dose 0.5-2 µM, time 24.0 hrs; remark: listed apart in the source
[32] = test system: U-87 MG; type: functional, Homo sapiens, U-87MG ATCC; settings: dose 0.5 µM; time 48 hrs; remark: listed apart in the source
[33] = AUC (0 to t) in Sprague-Dawley rat at 10 mg/kg, po measured after 24 hrs by LC-MS/MS analysis; type: ADME, organism-based; settings: in vivo
[34] = test system: U-87MG ATCC; type: functional, cell-based; settings: Homo sapiens, dose 0.5-2 µM, time 24.0 hrs; remark: listed apart in the source
[35] = test system: U-87 MG; type: functional, U-87MG ATCC; settings: Homo sapiens, time 48 hrs, read-out: Activity
[36] = Oral bioavailability in Sprague-Dawley rat at 10 mg/kg measured after 24 hrs by LC-MS/MS analysis; type: ADME, organism-based; settings: in vivo
[37] = test system: U-87 MG; experiment: Antiproliferative activity against human U-87 MG cells harboring wildtype IDH1 assessed as inhibition of cell growth incubated for 48 hrs by CCK8 assay; type: functional, cell-based, U-87MG ATCC
[38] = target: Isocitrate dehydrogenase [NADP] cytoplasmic (Homo sapiens, UniProt O75874); experiment: Inhibition of wildtype IDH1 (unknown origin) using DL-isocitrate as substrate incubated for 60 mins in presence of NADP by fluorescence microplate reader
Isocitrate dehydrogenase [NADP] cytoplasmic (Homo sapiens, UniProt O75874), sequence (O75874 whole entry): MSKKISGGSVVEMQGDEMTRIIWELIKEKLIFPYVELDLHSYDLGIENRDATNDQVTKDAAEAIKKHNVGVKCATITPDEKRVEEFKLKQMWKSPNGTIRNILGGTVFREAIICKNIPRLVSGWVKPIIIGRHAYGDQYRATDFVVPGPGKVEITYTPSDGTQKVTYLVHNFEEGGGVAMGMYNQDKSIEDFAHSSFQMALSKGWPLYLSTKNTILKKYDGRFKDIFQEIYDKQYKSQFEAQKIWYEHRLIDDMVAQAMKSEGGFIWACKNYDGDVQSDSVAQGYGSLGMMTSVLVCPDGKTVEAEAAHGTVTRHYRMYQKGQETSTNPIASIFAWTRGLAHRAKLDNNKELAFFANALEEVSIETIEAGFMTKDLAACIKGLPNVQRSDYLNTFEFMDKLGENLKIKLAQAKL

[39] = test system: U-87 MG; type: functional, organism-based; settings: Homo sapiens; U-87MG ATCC; dose 10-40 mg/kg, route iv, time 35.0 day; remark: listed apart in the source
[40] = Tmax in Sprague-Dawley rat at 10 mg/kg, po measured after 24 hrs by LC-MS/MS analysis; type: ADME, organism-based; settings: in vivo
[41] = test system: U-87 MG; type: functional, Homo sapiens, U-87MG ATCC; settings: dose 2 µM; time 48 hrs; remark: listed apart in the source
[42] = test system: U-87 MG; type: functional, cell-based; settings: Homo sapiens; U-87MG ATCC; dose 10-40 mg/kg, route iv, time 35.0 day
[43] = AUC in ICR mouse brain at 5 mg/kg, iv measured after 24 hrs by LC-MS/MS analysis; type: ADME, organism-based
[44] = test system: U-87 MG; type: functional, U-87MG ATCC; settings: Homo sapiens, time 48 hrs, read-out: Activity; remark: listed apart in the source
[45] = test system: U-87MG ATCC; type: functional, cell-based; settings: Homo sapiens, dose 0.5-2 µM, time 48.0 hrs; remark: listed apart in the source
[46] = target: T2, Nicotinamide phosphoribosyltransferase (Homo sapiens, UniProt P43490)
Target sequence in this assay (P43490 whole entry): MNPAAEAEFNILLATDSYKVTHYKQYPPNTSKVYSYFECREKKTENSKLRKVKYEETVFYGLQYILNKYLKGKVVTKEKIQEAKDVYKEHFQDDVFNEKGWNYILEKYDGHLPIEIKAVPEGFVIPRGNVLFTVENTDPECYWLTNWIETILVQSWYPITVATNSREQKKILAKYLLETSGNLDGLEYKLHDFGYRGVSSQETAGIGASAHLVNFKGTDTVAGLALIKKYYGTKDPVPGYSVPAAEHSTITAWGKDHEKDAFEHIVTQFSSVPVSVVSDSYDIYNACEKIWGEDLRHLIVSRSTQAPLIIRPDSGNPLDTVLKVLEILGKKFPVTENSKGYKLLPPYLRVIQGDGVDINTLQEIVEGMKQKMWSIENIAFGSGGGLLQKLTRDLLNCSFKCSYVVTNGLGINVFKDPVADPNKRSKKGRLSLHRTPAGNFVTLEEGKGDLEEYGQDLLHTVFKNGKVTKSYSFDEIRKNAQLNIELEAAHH

[47] = target: T2, Nicotinamide phosphoribosyltransferase; type: cell-based; settings: U-87 MG, dose 0.5 µM, time 6.0 hrs
Target sequence in this assay (P43490 whole entry, looked up): as the sequence (P43490 whole entry) above

[48] = AUC (0 to infinity) in Sprague-Dawley rat at 10 mg/kg, po measured after 24 hrs by LC-MS/MS analysis; type: ADME, organism-based; settings: in vivo
[49] = target: Voltage-gated inwardly rectifying potassium channel KCNH2 (Homo sapiens, UniProt Q12809); experiment: Inhibition of human ERG in CHO cells incubated for 2.5 mins by Qpatch electrogram analysis; type: toxicity, cell-based
Voltage-gated inwardly rectifying potassium channel KCNH2, sequence (Q12809 whole entry): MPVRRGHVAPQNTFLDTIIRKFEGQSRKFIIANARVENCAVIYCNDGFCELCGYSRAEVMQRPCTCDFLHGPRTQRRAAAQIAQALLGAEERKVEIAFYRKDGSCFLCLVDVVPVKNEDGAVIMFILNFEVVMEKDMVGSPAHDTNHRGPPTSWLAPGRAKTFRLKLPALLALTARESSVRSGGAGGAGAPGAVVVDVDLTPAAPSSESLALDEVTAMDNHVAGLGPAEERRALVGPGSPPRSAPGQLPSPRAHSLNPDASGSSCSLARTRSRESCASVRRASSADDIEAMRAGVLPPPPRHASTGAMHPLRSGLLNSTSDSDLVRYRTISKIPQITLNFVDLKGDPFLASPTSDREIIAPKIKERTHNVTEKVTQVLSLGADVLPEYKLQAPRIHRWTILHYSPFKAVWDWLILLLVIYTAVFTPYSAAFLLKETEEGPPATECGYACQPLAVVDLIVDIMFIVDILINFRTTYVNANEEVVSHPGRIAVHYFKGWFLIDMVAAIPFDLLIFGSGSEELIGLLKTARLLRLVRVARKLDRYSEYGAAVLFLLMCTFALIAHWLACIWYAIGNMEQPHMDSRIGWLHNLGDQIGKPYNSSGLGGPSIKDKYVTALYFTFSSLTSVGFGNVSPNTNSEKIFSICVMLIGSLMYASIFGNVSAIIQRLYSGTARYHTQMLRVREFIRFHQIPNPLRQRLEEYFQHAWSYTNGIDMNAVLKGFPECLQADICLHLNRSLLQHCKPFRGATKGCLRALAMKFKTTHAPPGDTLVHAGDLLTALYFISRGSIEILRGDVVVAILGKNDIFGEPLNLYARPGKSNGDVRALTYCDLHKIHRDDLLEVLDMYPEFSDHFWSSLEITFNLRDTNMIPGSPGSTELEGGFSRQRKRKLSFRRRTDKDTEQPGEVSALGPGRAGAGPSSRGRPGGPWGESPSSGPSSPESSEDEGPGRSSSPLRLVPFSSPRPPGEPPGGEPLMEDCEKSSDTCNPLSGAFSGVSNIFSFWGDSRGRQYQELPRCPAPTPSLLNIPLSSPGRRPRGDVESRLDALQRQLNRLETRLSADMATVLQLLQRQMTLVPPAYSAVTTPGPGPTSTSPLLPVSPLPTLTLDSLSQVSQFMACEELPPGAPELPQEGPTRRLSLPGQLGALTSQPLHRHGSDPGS

[50] = test system: U-87 MG; experiment: Antiproliferative activity against human U-87 MG cells harboring wildtype IDH1 assessed as inhibition of cell growth incubated for 72 hrs by CCK8 assay; type: functional, cell-based, U-87MG ATCC
[51] = target: Isocitrate dehydrogenase [NADP], mitochondrial (Homo sapiens, UniProt P48735, R140Q); experiment: Inhibition of IDH2 R140Q mutant (unknown origin) using alpha-ketoglutarate as substrate incubated in presence of NADPH by Envision multimode plate reader analysis
Isocitrate dehydrogenase [NADP], mitochondrial (Homo sapiens, UniProt P48735, R140Q), sequence (P48735 40-452 R140Q limits assumed): as the sequence (P48735 40-452 R172K limits assumed) above, with R101Q, K133R counted along it

[52] = test system: U-87 MG; type: functional, Homo sapiens, U-87MG ATCC; settings: dose 10 mg/kg; route iv; time 35 day
[53] = target: T2, Nicotinamide phosphoribosyltransferase; type: cell-based; settings: U-87 MG, dose 0.5-2 µM, time 48.0 hrs
Target sequence in this assay (P43490 whole entry, looked up): as the sequence (P43490 whole entry) above

[54] = test system: U-87MG ATCC; type: functional, cell-based; settings: Homo sapiens, dose 0.5-2 µM, time 24.0 hrs; remark: listed apart in the source
[55] = Ratio of drug concentration in ICR mouse brain to plasma at 5 mg/kg, iv measured after 24 hrs by LC-MS/MS analysis; type: ADME, organism-based; settings: read-out: BPR
[56] = test system: U-87 MG; type: functional, Homo sapiens, U-87MG ATCC; settings: dose 2 µM; time 48 hrs; remark: listed apart in the source

C[C@H](Nc1nccc(N2C(=O)OC[C@@H]2[C@H](C)F)n1)c1ccc(-c2ccc(NC(=O)COc3cccnc3)cc2)cc1
Activity [1]: 30.6% | half-life [2]: 124 min | AUC(0-t) at 24 h [3]: 1930 ng·h/mL | IC50 [4]: 1260 nM | half-life [5]: 69.6 min | Activity [6]: inactive | Cmax [7]: 867 ng/mL | Papp [8]: 4.07 ×10⁻⁶ cm/s | Activity [9]: Active | viability at 1 µM [10]: 35.5% | Activity [11]: Active | Tmax [12]: 1.98 min | MST [13]: 34 days | MST [14]: 30.5 days | AUC(0-inf) [15]: 1940 ng·h/mL | Activity [16]: Non-Toxic | IC50 [17]: 470 nM | Activity [18]: 4.51% | IC50 [19]: 320 nM | Cmax [20]: 4070 ng/mL | IC50 [21]: 65.1 nM | Activity [22]: inactive | IC50 [23]: 890 nM | Activity [24]: Active | IC50 [25]: > 100000 nM | AUC at 24 h [26]: 20300 ng·h/mL | clearance [27]: 4.33 mL/min/kg | IC50 [28]: > 100000 nM | Activity [29]: 2.84% | Activity [30]: Active | Activity [31]: Active | Activity [32]: 21.9% | AUC(0-t) at 24 h [33]: 919 ng·h/mL | Activity [34]: Active | viability at 0.5 µM [35]: 44.6% | bioavailability [36]: 4.75% | IC50 [37]: 770 nM | IC50 [38]: 8950 nM | Activity [39]: Active | Tmax [40]: 45 min | Activity [41]: 35.4% | Activity [42]: Dose-Dependent Effect | AUC at 24 h [43]: 15600 ng·h/mL | viability at 2 µM [44]: 34.7% | Activity [45]: Dose-Dependent Effect | IC50 [46]: 49.2 nM | Activity [47]: Active | AUC(0-inf) [48]: 921 ng·h/mL | IC50 [49]: > 40000 nM | IC50 [50]: 420 nM | IC50 [51]: > 100000 nM | MST [52]: 25.5 days | inhibition [53]: Dose-Dependent Effect | Activity [54]: Active | Kp at 24 h [55]: 0.76 | Activity [56]: 25.5%
